Experiment: xn = mol fraction of the nth substance listed
Conditions: 93.2 kPa, Liquid; for speed of sound: Frequency=3 MHz, Sing-around technique in a fixed-path interferometer; for mass density: Vibrating tube method

CCCC(=O)[O-].CCCC[NH3+] [n-butylammonium butanoate] + CCCCO
Conditions	mass density, 293.15 K [kg/m3]	mass density, 298.15 K [kg/m3]	mass density, 303.15 K [kg/m3]	mass density, 308.15 K [kg/m3]	mass density, 313.15 K [kg/m3]	speed of sound, 293.15 K [m/s]	speed of sound, 298.15 K [m/s]	speed of sound, 303.15 K [m/s]	speed of sound, 308.15 K [m/s]	speed of sound, 313.15 K [m/s]
x1 = 0.0305	817.522	813.696	809.839	805.95	802.02	1266.2	1249.1	1232	1215.2	1198.4
x1 = 0.053	822.696	818.886	815.044	811.168	807.257	1271.7	1254.5	1237.4	1220.5	1203.8
x1 = 0.101	833.099	829.318	825.508	821.665	817.785	1283.3	1266	1248.9	1231.9	1215
x1 = 0.1611	844.531	840.793	837.028	833.231	829.399	1296.3	1279	1261.8	1244.8	1227.9
x1 = 0.2022	851.656	847.949	844.213	840.451	836.653	1304.8	1287.5	1270.3	1253.2	1236.3
x1 = 0.2509	859.278	855.605	851.908	848.183	844.427	1314	1296.7	1279.5	1262.5	1245.6
x1 = 0.3027	866.842	863.204	859.543	855.853	852.119	1323.6	1306.3	1289.2	1272.1	1255.3
x1 = 0.3528	873.375	869.771	866.147	862.502	858.829	1332.3	1315	1297.9	1280.9	1264.1
x1 = 0.4053	879.699	876.13	872.54	868.931	865.297	1340.8	1323.5	1306.4	1289.5	1272.7
x1 = 0.449	884.611	881.064	877.503	873.925	870.321	1347.7	1330.5	1313.3	1296.4	1279.7
x1 = 0.4988	889.855	886.337	882.803	879.25	875.67	1355.4	1338.1	1321	1304.1	1287.4
x1 = 0.5505	894.968	891.475	887.969	884.447	880.9	1363.2	1345.9	1328.8	1311.9	1295.2
x1 = 0.6005	899.486	896.02	892.541	889.046	885.533	1370.4	1353	1335.9	1319	1302.3
x1 = 0.6491	903.634	900.198	896.744	893.273	889.785	1377.4	1359.9	1342.7	1325.8	1309.1
x1 = 0.6982	907.626	904.22	900.798	897.354	893.894	1384.5	1366.9	1349.6	1332.6	1316
x1 = 0.7456	911.277	907.896	904.501	901.087	897.65	1391.5	1373.7	1356.2	1339.1	1322.3
x1 = 0.7944	914.718	911.354	907.982	904.593	901.177	1398.7	1380.5	1362.8	1345.5	1328.7
x1 = 0.8462	918.325	914.961	911.608	908.243	904.86	1406.7	1388	1370	1352.5	1335.5
x1 = 0.8928	921.358	917.984	914.632	911.284	907.92	1414.2	1394.9	1376.5	1358.7	1341.5
x1 = 0.9463	924.512	921.173	917.809	914.461	911.112	1422.7	1402.7	1383.7	1365.5	1348
x1 = 1	928.794	925.509	922.217	918.88	915.567	1431.5	1410.3	1390.4	1371.5	1353.6
